Test results reported in US11464759B2, “5-HT6 receptor antagonists for use in the treatment of alzheimer's disease in patient subpopulation carrying APOE4 alleles” (H. Lundbeck A/S, priority 2017, dated 2022).
“Also recorded” adds a separate entry of the source.

Columns and labels:
AD = conditions: cited from earlier work
[1] = tested on: APOE4/4 homozygote patients and APOE4 heterozygote patients with mild-moderate Alzheimer's disease; assay: Expected treatment response to other 5-HT6 receptor antagonists in APOE4 patients; assay type: in vivo, human; conditions: APOE4/4 homozygote and APOE4 heterozygote patients with mild-moderate AD; surmised from idalopirdine
[2] = tested on: patients with mild-moderate Alzheimer's disease (MMSE 12-22); assay: Phase III program, idalopirdine as adjunctive treatment to acetylcholinesterase inhibitor, cognitive performance; assay type: in vivo, human
h5-HT1B = h5-HT1B (Homo sapiens, UniProt P28222); conditions: cited from earlier work
Chain of h5-HT1B (P28222 whole entry): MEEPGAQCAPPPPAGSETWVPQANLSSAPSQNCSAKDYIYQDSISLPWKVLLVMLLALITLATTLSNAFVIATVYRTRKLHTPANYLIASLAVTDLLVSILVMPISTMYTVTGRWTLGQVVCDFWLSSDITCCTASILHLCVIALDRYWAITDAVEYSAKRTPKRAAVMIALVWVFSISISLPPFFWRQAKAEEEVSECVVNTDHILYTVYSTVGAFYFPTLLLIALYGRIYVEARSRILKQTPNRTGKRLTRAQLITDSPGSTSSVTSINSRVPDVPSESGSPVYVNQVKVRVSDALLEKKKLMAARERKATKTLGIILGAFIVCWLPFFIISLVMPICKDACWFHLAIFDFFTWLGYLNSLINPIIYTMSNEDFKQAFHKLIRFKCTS

h5-HT1E = h5-HT1E (Homo sapiens, UniProt P28566); conditions: cited from earlier work
Chain of h5-HT1E (P28566 whole entry): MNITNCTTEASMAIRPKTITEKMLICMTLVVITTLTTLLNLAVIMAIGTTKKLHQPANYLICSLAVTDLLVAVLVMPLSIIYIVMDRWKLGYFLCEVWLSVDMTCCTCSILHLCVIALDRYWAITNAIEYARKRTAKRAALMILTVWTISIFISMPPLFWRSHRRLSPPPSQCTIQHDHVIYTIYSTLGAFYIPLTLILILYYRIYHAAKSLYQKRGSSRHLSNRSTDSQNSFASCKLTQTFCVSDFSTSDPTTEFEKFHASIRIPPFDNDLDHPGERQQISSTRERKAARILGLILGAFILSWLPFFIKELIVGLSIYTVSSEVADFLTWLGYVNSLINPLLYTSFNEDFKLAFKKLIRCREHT

h5-HT2B = h5-HT2B (Homo sapiens, UniProt P41595); conditions: cited from earlier work
Chain of h5-HT2B (P41595 whole entry): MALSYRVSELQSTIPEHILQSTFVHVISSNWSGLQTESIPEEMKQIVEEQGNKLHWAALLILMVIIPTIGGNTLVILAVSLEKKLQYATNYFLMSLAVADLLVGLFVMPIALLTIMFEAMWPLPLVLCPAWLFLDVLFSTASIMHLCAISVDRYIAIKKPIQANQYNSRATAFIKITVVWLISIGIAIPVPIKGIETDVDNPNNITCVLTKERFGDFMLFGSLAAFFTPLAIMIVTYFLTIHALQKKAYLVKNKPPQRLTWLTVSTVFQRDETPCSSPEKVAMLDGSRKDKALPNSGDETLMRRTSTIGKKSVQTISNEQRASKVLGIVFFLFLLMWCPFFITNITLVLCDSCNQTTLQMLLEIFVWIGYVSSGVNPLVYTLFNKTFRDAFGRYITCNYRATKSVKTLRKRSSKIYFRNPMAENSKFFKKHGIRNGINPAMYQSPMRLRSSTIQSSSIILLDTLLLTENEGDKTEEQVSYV

h5-HT7 = h5-HT7 (Homo sapiens, UniProt P34969); conditions: cited from earlier work
Chain of h5-HT7 (P34969 whole entry): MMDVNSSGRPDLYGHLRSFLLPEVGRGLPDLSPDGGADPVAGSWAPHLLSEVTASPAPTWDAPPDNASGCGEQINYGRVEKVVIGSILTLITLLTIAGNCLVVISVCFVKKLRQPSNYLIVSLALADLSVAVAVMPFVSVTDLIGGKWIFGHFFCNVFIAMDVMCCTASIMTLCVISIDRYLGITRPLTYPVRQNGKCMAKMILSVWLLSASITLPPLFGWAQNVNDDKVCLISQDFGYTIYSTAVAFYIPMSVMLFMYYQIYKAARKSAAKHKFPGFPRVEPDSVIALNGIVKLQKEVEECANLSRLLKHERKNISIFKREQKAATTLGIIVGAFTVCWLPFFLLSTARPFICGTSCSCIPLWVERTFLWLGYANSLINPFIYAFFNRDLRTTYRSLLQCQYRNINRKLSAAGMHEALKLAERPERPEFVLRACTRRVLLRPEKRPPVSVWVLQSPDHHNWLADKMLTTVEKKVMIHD

[3] = tested on: patients with moderate AD (MMSE 12-19); conditions: LADDER study, 90 mg/day (30 mg TID) added to stable donepezil; cited from earlier work
[4] = tested on: patients with mild-moderate AD; assay: Phase III study 14861A, NPI by ApoE4 allele number; conditions: 60 mg QD versus placebo, adjunct to donepezil
Text: (§1) Neuropsychiatric Inventory (NPI) was included as an endpoint supportive of the secondary objective.

[5] = tested on: patients with mild-moderate AD; assay: Phase III study 14863A, NPI by ApoE4 allele number; conditions: 60 mg QD versus placebo, adjunct to donepezil, rivastigmine, galantamine
Text: as §1

[6] = tested on: patients with mild-moderate AD; assay: Phase III study 14861A, MMSE by ApoE4 allele number; conditions: 60 mg QD versus placebo, adjunct to donepezil
Experimental: (§2) Mini Mental State Examination (MMSE) is measured according to Folstein, M. F., Folstein, S. E. & McHugh, P. R. “Mini-mental state”: a practical method for grading the cognitive state of patients for the clinician.
(§3) Mine Mental State Examination (MMSE) was included as a secondary endpoint supportive of the primary objective.
(§4) In the tables below a negative effect value for ADAS-cog and NPI reflects a positive treatment effect, while for ADL and MMSE a positive effect value reflects a positive treatment effect:

[7] = tested on: patients with mild-moderate AD; assay: Phase III study 14863A, MMSE by ApoE4 allele number; conditions: 60 mg QD versus placebo, adjunct to donepezil, rivastigmine, galantamine
Experimental: as §2, §3, §4

[8] = tested on: patients with mild-moderate AD; assay: Phase III study 14861A, ADAS-cog by ApoE4 allele number; conditions: 60 mg QD versus placebo, adjunct to donepezil
Text: (§5) The primary endpoint was change from baseline to Week 24 in Alzheimer's disease Assessment Scale-cognitive subscale (ADAS-cog). This end-point addresses the primary objective of the study, which was to establish efficacy of idalopirdine as adjunctive therapy to donepezil for symptomatic treatment of patients with mild-moderate AD.

[9] = tested on: patients with mild-moderate AD; assay: Phase III study 14861A, ADCS-ADL by ApoE4 allele number; conditions: 60 mg QD versus placebo, adjunct to donepezil
Experimental: (§6) ADCS-ADL is measured according to Galasko et al. An inventory to assess activities of daily living for clinical trials in Alzheimer's disease.
(§7) The key secondary endpoints included a change from baseline to Week 24 in Alzheimer's disease Cooperative Study-Activities of Daily Living Inventory (ADCS-ADL) total score.

[10] = tested on: patients with mild-moderate AD; assay: Phase III study 14863A, ADAS-cog by ApoE4 allele number; conditions: 60 mg QD versus placebo, adjunct to donepezil, rivastigmine, galantamine
Text: as §5

[11] = tested on: patients with mild-moderate AD; assay: Phase III study 14863A, ADCS-ADL by ApoE4 allele number; conditions: 60 mg QD versus placebo, adjunct to donepezil, rivastigmine, galantamine
Experimental: as §6, §7

[12] = tested on: patients with mild-moderate AD; assay: Phase III studies 14861A and 14863A pooled, NPI by ApoE4 allele number; conditions: 60 mg versus placebo, adjunct to AChEI
Text: as §1

[13] = tested on: patients with mild-moderate AD; assay: Phase III studies 14861A and 14863A pooled, MMSE by ApoE4 allele number; conditions: 60 mg versus placebo, adjunct to AChEI
Experimental: as §2, §3, §4

[14] = tested on: patients with mild-moderate AD; assay: Phase III studies 14861A and 14863A pooled, ADAS-cog by ApoE4 allele number; conditions: 60 mg versus placebo, adjunct to AChEI
Text: as §5

[15] = tested on: patients with mild-moderate AD; assay: Phase III studies 14861A and 14863A pooled, ADCS-ADL by ApoE4 allele number; conditions: 60 mg versus placebo, adjunct to AChEI
Experimental: as §6, §7

[16] = 0 ApoE4 alleles, negative = positive treatment effect
[17] = 1 ApoE4 allele, negative = positive treatment effect
[18] = 2 ApoE4 alleles, negative = positive treatment effect
[19] = interaction 2 vs 0 ApoE4 alleles
[20] = interaction (1 or 2) vs 0 ApoE4 alleles
[21] = 0 ApoE4 alleles, positive = positive treatment effect
[22] = 1 ApoE4 allele, positive = positive treatment effect
[23] = 2 ApoE4 alleles, positive = positive treatment effect

NCCCS(=O)(=O)O [tramiprosate]
primary endpoint of phase III program (AD; all patients): not to meet its primary endpoint | prespecified subgroup analysis (AD; apolipoprotein E4 carriers): potential efficacy

O=S(=O)(c1ccccc1)c1cnc2c(N3CCNCC3)cccc2c1 [RVT-101, 3-phenylsulfonyl-8-piperazin-1-yl-quinoline]
treatment response in Alzheimer's disease [1]: enhanced treatment response

CSc1nn2c(C)cc(C)nc2c1S(=O)(=O)c1ccccc1 [AVN-211, 3-Benzenesulfonyl-5,7-dimethyl-2-methylsulfanyl-pyrazolo[1,5-a]pyrimidine]
treatment response in Alzheimer's disease [1]: enhanced treatment response

Fc1ccc2c(CCNCc3cccc(OCC(F)(F)C(F)F)c3)c[nH]c2c1 [idalopirdine, N-(2-(6-fluoro-1H-indol-3-yl)-ethyl)-3-(2,2,3,3-tetrafluoropropoxy)-benzylamine]
cognitive performance relative to donepezil monotherapy ([2]; adjunctive to donepezil, APOE4 homozygote and APOE4 heterozygote patients with mild-moderate AD (MMSE 12-22)): a significant improvement | cognitive performance relative to donepezil monotherapy ([2]; phase III, 10, 30, and 60 mg QD adjunctive to AChEI, all patients with mild-moderate AD (MMSE 12-22)): did not replicate the phase II efficacy results; also recorded: no significant improvement | Ki (h5-HT1B): > 10 µM | Ki (h5-HT1E): > 4.6 µM | Ki (h5-HT2B): > 4.1 µM | Ki (h5-HT7): > 10 µM | cognitive performance relative to donepezil monotherapy [3]: significant improvement | Change in NPI at week 24, effect of 60 mg IDL [4, 16]: 0.96 | Change in NPI at week 24, effect of 60 mg IDL [4, 17]: −0.43 | Change in NPI at week 24, effect of 60 mg IDL [4, 18]: −4.52 | Change in NPI at week 24, effect of 60 mg IDL [4, 19]: −5.48 | Change in NPI at week 24, effect of 60 mg IDL [4, 20]: −3.44 | Change in NPI at week 24, effect of 60 mg IDL [5, 16]: −0.09 | Change in NPI at week 24, effect of 60 mg IDL [5, 17]: 0.34 | Change in NPI at week 24, effect of 60 mg IDL [5, 18]: −2.06 | Change in NPI at week 24, effect of 60 mg IDL [5, 19]: −1.97 | Change in NPI at week 24, effect of 60 mg IDL [5, 20]: −0.77 | Change in MMSE at week 24, effect of 60 mg IDL [6, 21]: −0.68 | Change in MMSE at week 24, effect of 60 mg IDL [6, 22]: 0.64 | Change in MMSE at week 24, effect of 60 mg IDL [6, 23]: 1.11 | Change in MMSE at week 24, effect of 60 mg IDL [6, 19]: 1.79 | Change in MMSE at week 24, effect of 60 mg IDL [6, 20]: 1.56 | Change in MMSE at week 24, effect of 60 mg IDL [7, 21]: 0.16 | Change in MMSE at week 24, effect of 60 mg IDL [7, 22]: 0.42 | Change in MMSE at week 24, effect of 60 mg IDL [7, 23]: 0.96 | Change in MMSE at week 24, effect of 60 mg IDL [7, 19]: 0.80 | Change in MMSE at week 24, effect of 60 mg IDL [7, 20]: 0.53 | Change in ADAS-cog at week 24, effect of 60 mg IDL [8, 16]: 1.14 | Change in ADAS-cog at week 24, effect of 60 mg IDL [8, 17]: −0.67 | Change in ADAS-cog at week 24, effect of 60 mg IDL [8, 18]: −1.87 | Change in ADAS-cog at week 24, effect of 60 mg IDL [8, 19]: −3.02 | Change in ADAS-cog at week 24, effect of 60 mg IDL [8, 20]: −2.42 | Change in ADCS-ADL at week 24, effect of 60 mg IDL [9, 21]: −1.29 | Change in ADCS-ADL at week 24, effect of 60 mg IDL [9, 22]: 0.75 | Change in ADCS-ADL at week 24, effect of 60 mg IDL [9, 23]: 2.06 | Change in ADCS-ADL at week 24, effect of 60 mg IDL [9, 19]: 3.35 | Change in ADCS-ADL at week 24, effect of 60 mg IDL [9, 20]: 2.69 | Change in ADAS-cog at week 24, effect of 60 mg IDL [10, 16]: −0.75 | Change in ADAS-cog at week 24, effect of 60 mg IDL [10, 17]: −0.18 | Change in ADAS-cog at week 24, effect of 60 mg IDL [10, 18]: −2.23 | Change in ADAS-cog at week 24, effect of 60 mg IDL [10, 19]: −1.48 | Change in ADAS-cog at week 24, effect of 60 mg IDL [10, 20]: −0.46 | Change in ADCS-ADL at week 24, effect of 60 mg IDL [11, 21]: 0.50 | Change in ADCS-ADL at week 24, effect of 60 mg IDL [11, 22]: 0.83 | Change in ADCS-ADL at week 24, effect of 60 mg IDL [11, 23]: 1.86 | Change in ADCS-ADL at week 24, effect of 60 mg IDL [11, 19]: 1.37 | Change in ADCS-ADL at week 24, effect of 60 mg IDL [11, 20]: 0.85 | Change in NPI at week 24, effect of 60 mg IDL [12, 16]: 0.35 | Change in NPI at week 24, effect of 60 mg IDL [12, 17]: −0.04 | Change in NPI at week 24, effect of 60 mg IDL [12, 18]: −3.06 | Change in NPI at week 24, effect of 60 mg IDL [12, 19]: −3.41 | Change in NPI at week 24, effect of 60 mg IDL [12, 20]: −1.90 | Change in MMSE at week 24, effect of 60 mg IDL [13, 21]: −0.20 | Change in MMSE at week 24, effect of 60 mg IDL [13, 22]: 0.53 | Change in MMSE at week 24, effect of 60 mg IDL [13, 23]: 1.00 | Change in MMSE at week 24, effect of 60 mg IDL [13, 19]: 1.20 | Change in MMSE at week 24, effect of 60 mg IDL [13, 20]: 0.96 | Change in ADAS-cog at week 24, effect of 60 mg IDL [14, 16]: 0.02 | Change in ADAS-cog at week 24, effect of 60 mg IDL [14, 17]: −0.41 | Change in ADAS-cog at week 24, effect of 60 mg IDL [14, 18]: −2.11 | Change in ADAS-cog at week 24, effect of 60 mg IDL [14, 19]: −2.13 | Change in ADAS-cog at week 24, effect of 60 mg IDL [14, 20]: −1.28 | Change in ADCS-ADL at week 24, effect of 60 mg IDL [15, 21]: −0.21 | Change in ADCS-ADL at week 24, effect of 60 mg IDL [15, 22]: 0.77 | Change in ADCS-ADL at week 24, effect of 60 mg IDL [15, 23]: 1.88 | Change in ADCS-ADL at week 24, effect of 60 mg IDL [15, 19]: 2.09 | Change in ADCS-ADL at week 24, effect of 60 mg IDL [15, 20]: 1.53
